Measurements taken from patent US4072757A, “N^2 alkoxynaphthylsulfonyl-L-argininamides and the pharmaceutically acceptable salts thereof” (Mitsubishi Chemical Industries Limited, priority 1974, dated 1978).

Assays:
[1] = acute toxicity (LD50) by intraperitoneal administration in mice; conditions: mouse, in vivo, ip, mice (male, 20 g)
Experimental: On the other hand, LD50 values for N^2 -dansyl-N-butyl-L-argininamide and N^2 -dansyl-N-methyl-N-butyl-L-argininamide are 75 and 70 milligrams per kilogram, respectively. The therapeutic agents of this invention may be administered to mammals including humans, alone or in combination with pharmaceutically acceptable carriers, the proportion of which is determined by the solubility and chemical nature of the compound, chosen route of administration and standard pharmaceutical practice. For example, the compounds may be injected parenterally, that is, intramuscularly, intravenously or subcutaneously. For parenteral administration, the compounds may be used in the form of sterile solutions containing other solutes, for example, sufficient saline or glucose to make the solution isotonic. The compounds may be administered orally in the form of tablets, capsules, or granules containing suitable excipients such as starch, lactose, white sugar and the like. The compounds may be administered sublingually in the form of troches or lozenges in which each active ingredient is mixed with sugar or corn syrups, flavoring agents and dyes, and then dehydrated sufficiently to make the mixture suitable for pressing into solid form. The compounds may be administered orally in the form of solutions which may contain coloring and flavoring agents.

thrombin = biological target: T1, thrombin (Bos taurus, UniProt P00735); experiment: fibrinogen coagulation time; type: biochemical; conditions: bovine fibrinogen, thrombin 5 units/ml, borate saline buffer pH 7.4, 25° C; normal coagulation time 50-55 seconds to 100-110 seconds; read-out: Concentration required to prolong the coagulation time by a factor of two
T1 construct: clotting of bovine fibrinogen
Experimental: The measurement of the fibrinogen coagulation time was conducted as follows:
Immediately after mixing, the reaction mixture was transferred from the ice bath to a bath maintained at 25° C. Coagulation times were taken as the period between the time of transference to the 25° C bath and the time of the first appearance of fibrin threads.
The term "concentration required to prolong the coagulation time by a factor of two" is the concentration of an active ingredient required to prolong the normal coagulation time 50-55 seconds to 100-110 seconds.

| Structure (SMILES) | IC (2-fold clotting time) (thrombin) | LD50 [1] |
| --- | --- | --- |
| CCOC(=O)C1CC(C)CCN1C(=O)[C@H](CCCNC(=N)N)NS(=O)(=O)c1ccc2ccc(OC)cc2c1 (stereo partly drawn) [Sample 6, Ethyl 1-[N^2-(7-methoxy-2-naphthylsulfonyl)-L-arginyl]-4-methyl-2-piperidinecarboxylate] |  | 670 to 1000 mg/kg |
| CCCC1CCN(C(=O)[C@H](CCCNC(=N)N)NS(=O)(=O)c2ccc3cc(OC)c(OC)cc3c2)C(C(=O)O)C1 (stereo partly drawn) [Sample 19, 1-[N^2-(6,7-dimethoxy-2-naphthylsulfonyl)-L-arginyl]-4-propyl-2-piperidinecarboxylic acid] | 0.5 µM |  |
| COc1ccc2cc(S(=O)(=O)N[C@@H](CCCNC(=N)N)C(=O)N3CCC(C)CC3C(=O)O)cc(OC)c2c1 (stereo partly drawn) [Sample 11, 1-[N^2-(4,6-dimethoxy-2-naphthylsulfonyl)-L-arginyl]-4-methyl-2-piperidinecarboxylic acid] | 0.35 µM | 670 to 1000 mg/kg |
| COc1cc2ccc(S(=O)(=O)N[C@@H](CCCNC(=N)N)C(=O)N3CCCCC3C(=O)O)cc2cc1OC (stereo partly drawn) [Sample 2, 1-[N^2-(6,7-dimethoxy-2-naphthylsulfonyl)-L-arginyl]-2-piperidinecarboxylic acid] |  | 1500 mg/kg |
| COc1ccc2cc(S(=O)(=O)N[C@@H](CCCNC(=N)N)C(=O)N3CCCCC3C(=O)O)ccc2c1 (stereo partly drawn) [Sample 4, 1-[N^2-(6-methoxy-2-naphthylsulfonyl)-L-arginyl]-2-piperidinecarboxylic acid] | 3 µM |  |

Further lines, with some results ahead:

| IC (2-fold clotting time) (thrombin) | Structure (SMILES) | LD50 [1] |
| --- | --- | --- |
| 12 µM | COc1cc2ccc(S(=O)(=O)N[C@@H](CCCNC(=N)N)C(=O)N3CCC(c4ccccc4)CC3C(=O)O)cc2cc1OC (stereo partly drawn) [Sample 30, 1-[N^2-(6,7-dimethoxy-2-naphthylsulfonyl)-L-arginyl]-4-phenyl-2-piperidinecarboxylic acid] |  |
| 0.15 µM | COc1ccc2ccc(S(=O)(=O)N[C@@H](CCCNC(=N)N)C(=O)N3CCC(C)CC3C(=O)O)cc2c1 (stereo partly drawn) [Sample 7, 1-[N^2-(7-methoxy-2-naphthylsulfonyl)-L-arginyl]-4-methyl-2-piperidinecarboxylicacid] |  |
| 0.4 µM | COc1cc2ccc(S(=O)(=O)N[C@@H](CCCNC(=N)N)C(=O)N3CCC(C)CC3C(=O)O)cc2cc1OC (stereo partly drawn) [Sample 5, 1-[N^2-(6,7-dimethoxy-2-naphthylsulfonyl)-L-arginyl]-4-methyl-2-piperidinecarboxylic acid] |  |
